Measured values from US20230381127A1, “COMPOSITIONS AND METHODS FOR MOOD ENHANCEMENT” (EPITRACKER, INC., priority 2020, published 2023).

Legend:
CB1 = target: T1, CB1 (Homo sapiens, UniProt P21554); assay: SAFETYscan E/IC50 ELECT functional assay, CB1 receptor agonist mode; type: cell-based; settings: at 20 μM; relative to positive control CP 55940 assigned 100% activity
T1 construct: purchased DiscoverX/Eurofins SAFETYscan E/IC50 ELECT
Source text: (§1) This study assessed potential pharmacologic targets of pentadecanoic acid. Specifically, this study examined agonist and antagonist activities of synthetic pentadecanoic acid across 78 assays using SAFETYscan E/IC50 ELECT (DiscoverX/Eurofins, Fremont, California). Briefly, a variety of standardized and optimized functional assays were used to assess pentadecanoic acid's pharmacologic targets, including G protein coupled receptors (ADORA2A, ADRA1A, ADRA2A, ADRB1, ADRB2, CB1, CB2, CCK1, D1, D2S, ETA, H1, H2, M1 M2, M3, OPRD1, OPRK1, OPRM1, 5HTR1A, 5HTR1B, 5HTR2A, 5HTR2B, AVPR1A), kinases (LCK, INSR, VEGFR2, ROCK1), transporters (DAT, NET, SERT), ion channels (GABAA, 5-HT3, CA1.2, HERG, KVLQT1/MINK, NA1.5, NMDAR1/2B, NACHR), nuclear receptors (AR, GR), and non-kinase enzymes (COX1, COX2, ACHE, MAOA, PDE3A, PDE4D2). Ten-point concentration curves for both agonist (EC50) and antagonist (IC50) activity were established for each target. Maximum activity (%) was also determined based on comparisons with internal positive controls, which were assigned 100% activity.

CB2 = target: T2, CB2 (Homo sapiens, UniProt P34972); assay: SAFETYscan E/IC50 ELECT functional assay, CB2 receptor agonist mode; type: cell-based; settings: at 20 μM; relative to positive control CP 55940 assigned 100% activity
T2 construct: purchased DiscoverX/Eurofins SAFETYscan E/IC50 ELECT
Source text: as §1

[1] = 6-week voluntary electronic customer survey on stress and mood after daily fatty15 (C15:0) supplement; type: in vivo, human; settings: 100 mg daily oral (fatty15 capsule), 6 weeks; 135 responders; response of 7 or greater on 1-10 scale = agreement
Method: (§2) An odd-chain saturated fatty acid dietary supplement, containing an encapsulated pure (>98%) free fatty acid C15:0 powder and called fatty15™, was available as a consumer health product. Recommended dosing is a single, 100 mg capsule taken orally once a day.
6-Week Survey. Approximately six weeks following receipt of the C15:0 supplement, fattyl5, customers were provided a voluntary electronic questionnaire to evaluate potential near-term benefits, including the questions: “Overall how much would you agree with the following statement: Since starting fatty15, I have been feeling more calm and/or less stressed.” and “Overall how much would you agree with the following statement: Since starting fatty15, I generally feel happier and/or not as bothered by things that used to upset me.”
Survey responders were asked to select a number between 1 and 10, in which 1=Strongly disagree and 10=Strongly agree. A response of 7 or greater was considered an agreement with the statement. Survey responders were also asked if fatty15 had become a part of their daily health routine.

[2] = Customer testimonials on stress and mood with fatty15 (C15:0) supplement; type: in vivo, human; settings: daily oral supplementation 100 mg/day (fatty15); summary of testimonials in the 1st table
Method: as §2, with “is” for “was”, “day. Customers were provided opportunities to share their experience, including through voluntary surveys and customer rating programs.” for “day.”

T1 sequence (P21554 whole entry): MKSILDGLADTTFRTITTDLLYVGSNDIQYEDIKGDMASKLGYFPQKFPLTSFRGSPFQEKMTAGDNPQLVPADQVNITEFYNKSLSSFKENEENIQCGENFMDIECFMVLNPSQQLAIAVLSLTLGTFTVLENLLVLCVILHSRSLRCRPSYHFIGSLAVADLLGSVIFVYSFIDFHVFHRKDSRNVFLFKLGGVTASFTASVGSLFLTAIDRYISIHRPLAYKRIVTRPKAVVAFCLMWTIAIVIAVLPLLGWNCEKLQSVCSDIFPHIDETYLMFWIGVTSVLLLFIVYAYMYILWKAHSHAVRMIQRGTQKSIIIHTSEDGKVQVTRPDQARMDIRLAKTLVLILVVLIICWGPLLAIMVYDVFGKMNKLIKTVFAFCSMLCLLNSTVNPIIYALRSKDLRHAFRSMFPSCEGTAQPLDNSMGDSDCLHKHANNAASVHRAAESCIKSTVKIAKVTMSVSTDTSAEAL
T2 sequence (P34972 whole entry): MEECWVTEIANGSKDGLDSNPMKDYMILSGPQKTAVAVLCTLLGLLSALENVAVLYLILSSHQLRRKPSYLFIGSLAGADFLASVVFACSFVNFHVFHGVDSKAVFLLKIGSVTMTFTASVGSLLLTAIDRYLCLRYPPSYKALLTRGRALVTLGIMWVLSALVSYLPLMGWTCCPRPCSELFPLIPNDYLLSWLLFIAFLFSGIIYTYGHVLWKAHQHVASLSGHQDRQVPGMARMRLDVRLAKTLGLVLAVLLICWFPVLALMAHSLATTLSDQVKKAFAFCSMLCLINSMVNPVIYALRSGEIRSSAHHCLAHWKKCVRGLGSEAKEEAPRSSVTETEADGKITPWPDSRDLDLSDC

CCCCCCCCCCCCCCC(=O)O [pentadecanoic acid]
CB1 agonist activity (CB1): 24.5% | CB2 agonist activity (CB2): 18.2% | customers reporting feeling calmer and/or less stressed [1]: 41% | customers reporting feeling generally happier and/or not as bothered by things that used to upset them [1]: 37% | effect on stress and mood per customer testimonials [2]: can lower stress and calm and enhance mood
